This note sets out measurements from EP1801112A1, “Bicyclic pyrimidines and bicyclic 3,4-dihydropyrimidines as inhibitors of cellular proliferation” (Warner-Lambert Company LLC, priority 1998, dated 1999).

The subject of this experiment is human umbilical vein endothelial cells. Nature of the experiment: Human Umbilical Vein Endothelial Cell (HUVEC) Proliferation Assay. The experiment is classed as cell-based. The following applies: 96 h, four days incubation, Sulphorhodamine B staining. Here is the method:
The compounds of Formula I are useful for treating cell proliferative disorders concerning angiogenesis and have been evaluated in a human umbilical vein endothelial cell in vitro assay. The assay described below is used to determine the anti-proliferative effects of the invention compounds on human umbilical vein endothelial cells, and the results are shown in Table 7.
Human Umbilical Vein Endothelial Cell (HUVEC) Proliferation Assay
Ninety-six well tissue culture plates are seeded with 100 µL of cells in all wells of rows A->G with row H remaining empty as a blank. HUVEC (Clonetics, San Diego, CA) are grown in endothelial growth medium (EGM media, Clonetics), containing 2% fetal bovine serum. The cell seed density for HUVEC cells is 20,000 per mL. C6 cells (ATCC Cat. No. CCL-107) are seeded at 6000 per mL in F10 medium (nutrient mixture Hemes) supplemented with 15% horse serum, 2.5% fetal bovine serum, and 6.0 mL 200 mM Glutamine per 600 mL medium. A90 cells (Suny, Buffalo, NY) are also seeded at 6000 per mL, but they are grown in RPMI 1640 (Roswell Park Memorial Institute) plus 10% fetal bovine serum. Unless noted otherwise, tissue culture media and components are from GIBCO. The cells are allowed to incubate at 37°C, 5% CO2, and 100% relative humidity for 16-24 hours.
Invention compounds are prepared by dissolving them in DMSO at a concentration of 5 mM, followed by dilution to 50 µM in EGM media. One hundred microliters of the compounds are applied to duplicate wells in column 1 of the previously prepared cell plates. Column 1 row H receives 100 µL of EGM media. The compounds in column 1 are diluted across the plates using serial twofold dilutions.
The plates are incubated as above for an additional four days before being stained with Sulphorhodamine B. Staining is performed as follows: The media is removed from the plates, and the cells are fixed using 10% trichloroacetic acid for 30 minutes at 4°C. Following fixation, the plates are washed five times with distilled water after which 100 µL of Sulphorhodamine B is added to each well. Sulphorhodamine B is dissolved in 1% acetic acid to a concentration of .075%. Following staining, excess stain is removed from the wells, and the plates are washed four times with 1% acetic acid. The plates are allowed to air dry before the bound dye is solubilized in 100 µL of 10 mM unbuffered TRIS base. Absorbance is measured on a 96 well plate reader at […] using a reference filter wavelength of 630 nm. […] Sulphorhodamine B and TRIS are from Sigma Chemical Company. Acetic acid and trichloroacetic acid are from Mallinckrodt AR.
Background: Sulforhodamine B stains cellular protein and so reports cell mass.
Consider `CCN1C(=O)N(c2cc(OC)cc(OC)c2)Cc2cnc(NCCCCN3CCN(C)CC3)nc21` [Example 58, 3-(3,5-Dimethoxy-phenyl)-1-ethyl-7-[4-(4-methyl-piperazin-1-yl)-butylamino]-3,4-dihydro-pyrimido[4,5-d]pyrimidin-2(1H)-one], for which half-maximal inhibition (IC50) was put at 0.134 µM. Turning to `COc1cc(OC)cc(N2Cc3cnc(NCCCCCN4CCN(C)CC4)nc3NC2=O)c1` [Example 54c, 3-(3,5-Dimethoxy-phenyl)-7-[5-(4-methyl-piperazin-1-yl)-pentylamino]-3,4-dihydro-pyrimido[4,5-d]pyrimidin-2(1H)-one], half-maximal inhibition (IC50) required 5.78 µM. In the case of `COc1cc(OC)cc(N2Cc3cnc(NCCCN4CCN(C)CC4)nc3NC2=O)c1` [Example 54a, 3-(3,5-Dimethoxy-phenyl)-7-[3-(4-methyl-piperazin-1-yl)-propylamino]-3,4-dihydro-1H-pyrimido[4,5-d]pyrimidin-2(1H)-one], the concentration for half-maximal inhibition (IC50) (as a rule, the concentration that gives 50% inhibition) is 5.99 µM.

On to `CCN1C(=O)N(c2cc(OC)cc(OC)c2)Cc2cnc(NCCNCc3ccncc3)nc21` [Example 56, 3-(3,5-Dimethoxy-phenyl)-1-ethyl-7-{2-[(pyridin-4-ylmethyl)-amino]-ethylamino}-3,4-dihydro-pyrimido[4,5-d]pyrimidin-2(1H)-one], for which the IC50 came out at 1.93 µM. The figure for `COc1cc(OC)cc(N2Cc3cnc(NCCCCN4CCN(C)CC4)nc3NC2=O)c1` [Example 54b, 3-(3,5-Dimethoxy-phenyl)-7-[4-(4-methyl-piperazin-1-yl)-butylamino]-3,4-dihydro-pyrimido[4,5-d]pyrimidin-2(1H)-one] is 4.96 µM.
